Data from PubChem BioAssay (NCI).
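Method: 48-hour compound exposure of cells in 96-well plates, five concentrations, linear interpolation of endpoints. At the GI50, growth is halved. TGI: concentration producing complete growth inhibition.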

Tests used:
Assay in all cases: inhibition of tumour cell growth, NCI panel, 48 h
CCRF-CEM leukemia = tested on: CCRF-CEM leukemia
HT29 colon = tested on: HT29 colon
ACHN renal = tested on: ACHN renal
SW-620 colon = tested on: SW-620 colon
HS 578T breast = tested on: HS 578T breast
NCI-H522 lung = tested on: NCI-H522 lung
SR leukemia = tested on: SR leukemia
DU-145 prostate = tested on: DU-145 prostate
OVCAR-5 ovarian = tested on: OVCAR-5 ovarian
NCI/ADR-RES ovarian = tested on: NCI/ADR-RES ovarian

Compound | TGI (CCRF-CEM leukemia) | TGI (HT29 colon) | TGI (ACHN renal) | TGI (SW-620 colon) | GI50 (CCRF-CEM leukemia) | GI50 (HS 578T breast) | TGI (HS 578T breast) | GI50 (NCI-H522 lung) | TGI (NCI-H522 lung) | GI50 (ACHN renal) | GI50 (SW-620 colon) | GI50 (SR leukemia) | TGI (SR leukemia) | GI50 (DU-145 prostate) | TGI (DU-145 prostate) | GI50 (OVCAR-5 ovarian) | TGI (OVCAR-5 ovarian) | GI50 (NCI/ADR-RES ovarian) | TGI (NCI/ADR-RES ovarian)
O=C(O)/C(Cl)=C(\Cl)Nc1cccc(C(F)(F)F)c1 | > 100 µM | > 100 µM | > 100 µM | > 100 µM | – | – | – | – | – | – | – | – | – | – | – | – | – | – | –
O=C1C2CC3C(CC2C(=O)[N]1[Sn]([c]1ccccc1)([c]1ccccc1)[c]1ccccc1)C1(Cl)C(Cl)=C(Cl)C3(Cl)C1(Cl)Cl (configuration not stated) | 0.371 µM | – | 0.243 µM | 0.216 µM | 64.5 nM | 204 nM | 1.11 µM | 92.4 nM | 0.226 µM | 112 nM | 63.6 nM | 102 nM | 0.532 µM | 70.1 nM | 200 nM | 151 nM | 0.317 µM | – | –
CN1CCC23c4c5ccc(O)c4OC2C(=NN=C2CCC4(O)C6Cc7ccc(O)c8c7C4(CCN6C)C2O8)CCC3(O)C1C5 (configuration not stated) | > 100 µM | > 100 µM | > 100 µM | > 100 µM | – | – | – | – | > 100 µM | – | – | – | – | – | – | – | > 100 µM | – | –
COC(=O)C1=CC(O)CCC1c1ccc(OC)cc1 (configuration not stated) | > 100 µM | > 100 µM | > 100 µM | > 100 µM | – | – | – | – | > 100 µM | – | – | – | > 100 µM | – | – | – | > 100 µM | – | –
CCc1ccccc1NC(=O)/C(CC(=O)c1c(C)n([O-])c2ccccc2[n+]1=O)=N\NS(=O)(=O)c1ccc(C)cc1 | 52.6 µM | > 100 µM | > 100 µM | > 100 µM | – | – | – | – | 47.1 µM | – | – | – | 42.8 µM | – | – | – | > 100 µM | – | –
Cc1ccc(-c2csc(N(C(=O)N3CCN(c4cc5c(cc4F)c(=O)c(C(=O)O)cn5C4CC4)CC3)c3ccccc3)n2)cc1 | – | – | > 100 µM | – | – | 428 nM | > 100 µM | 292 nM | > 100 µM | 278 nM | – | 238 nM | > 100 µM | 460 nM | > 100000 nM | – | – | – | –
COc1cc(C(=O)C/C(CCC(=O)Nc2ccccc2[N+](=O)[O-])=N\NC(=O)C(N)=O)ccc1O | > 100 µM | > 100 µM | > 100 µM | > 100 µM | – | – | – | – | – | – | – | – | > 100 µM | – | – | – | > 100 µM | – | –
COc1ccc2cc(C(=O)c3ccccc3C(=O)O)ccc2c1 | > 100 µM | > 100 µM | > 100 µM | > 100 µM | – | – | – | – | > 100 µM | – | – | – | > 100 µM | – | – | – | > 100 µM | – | –
Cc1nc(NC(=S)NC(=O)c2ccc(Cl)c(Cl)c2)sc1C(=O)/C=C/c1ccccc1[N+](=O)[O-] | 73.9 µM | 46 µM | 67.4 µM | 41.2 µM | – | – | – | – | 33.7 µM | – | – | – | 63.1 µM | – | – | – | – | – | –
COC1=CC(=O)c2ccc(C(C)C)cc2C1(C)C1=NC(C)(C)CO1 (configuration not stated) | > 100 µM | > 100 µM | > 100 µM | > 100 µM | – | – | – | – | > 100 µM | – | – | – | > 100 µM | – | – | – | – | – | –
COc1ccccc1/C=C/C(=O)c1sc(-c2cccnc2)nc1C | > 100 µM | > 100 µM | > 100 µM | > 100 µM | – | – | – | – | > 100 µM | – | – | – | – | – | – | – | > 100 µM | – | –
CCCCCCCC[N+](C)(C)Cc1ccc(C[N+](C)(C)CCCCCCCC)cc1 | > 100 µM | > 100 µM | > 100 µM | > 100 µM | – | – | – | – | > 100 µM | – | – | – | > 100 µM | – | – | – | > 100 µM | – | –
CC(C#N)c1cn(S(=O)(=O)c2ccccc2)c2ccccc12 (configuration not stated) | > 100 µM | > 100 µM | > 100 µM | > 100 µM | – | – | – | – | 94.9 µM | – | – | – | > 100 µM | – | – | – | > 100 µM | – | –
O=c1c(O)c(-c2ccc(O)c(O)c2)oc2cc(O)ccc12 | > 71.1 µM | 98.8 µM | > 91 µM | 60.1 µM | – | – | – | – | 45.3 µM | – | – | – | 99.8 µM | – | – | – | 42.1 µM | – | –
C=C(C)C1CC=C(C(=O)O)CC1 (configuration not stated) | 2770 µM | > 5000 µM | > 5000 µM | > 5000 µM | – | – | – | – | 1830 µM | – | – | – | 4650 µM | – | – | – | > 5000 µM | – | –
COc1ccc2[nH]c3c4c(c5cc(C(C)(C)C)ccc5c3c2c1)C(=O)N(c1ccccc1)C4=O | – | > 100 µM | – | > 100 µM | – | – | – | – | > 100 µM | – | – | – | – | – | – | – | > 100 µM | – | –
c1cncc(C2c3[nH]c4ccccc4c3CCN2CCCN2CCCCC2)c1 (configuration not stated) | – | > 100 µM | > 100 µM | > 100 µM | – | – | – | – | > 100 µM | – | – | – | > 100 µM | – | – | – | > 100 µM | – | –
CC1=CC(=O)C(C)(C2=NC(C)(C)CO2)c2ccccc21 (configuration not stated) | > 100 µM | > 100 µM | > 100 µM | > 100 µM | – | – | – | – | > 100 µM | – | – | – | > 100 µM | – | – | – | – | – | –
C[C@H]1CCC/C=C/[C@@H]2C[C@H](O)C[C@H]2[C@H](O)[C@H](S(=O)c2ccc(O)cc2)CC(=O)O1 (some centres not stated) | – | – | 0.41 µM | > 100 µM | 48 nM | 72.6 nM | > 100 µM | 141 nM | 3.34 µM | 65.4 nM | 50.6 nM | – | – | – | – | 61.3 nM | – | 17.4 nM | 75.8 nM
